From PubChem BioAssay AID256 (DTP/NCI, 2004)
Where “and” joins values, the source holds several entries; their conditions need not be identical. Equal values may be shown once. Inconclusive results and toxic doses are left out. Rule for the calls: active = survival T/C of 150% or more; inactive = T/C below 125% in these data.

Test system: CD2F1 mice, L1210 leukemia ip, survival T/C
Assay: NCI In Vivo Anticancer Drug Screen. Data for tumor model L1210 Leukemia (intraperitoneal) in CD2F1 (CDF1) mice
Conditions: higher = longer survival
Method in brief: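 Read-out first: treated-group measurement over vehicle-control measurement, expressed as a ratio. Animals bore a transplanted tumor line and were dosed with compound or vehicle.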

[1] = endpoint: mean survival time, dose: 12.5 mg/kg/injection, schedule: Q01DX009 (ip), vehicle: Klucel (hydroxypropylcellulose) (HPC)
[2] = endpoint: mean survival time, dose: 25.0 mg/kg/injection, schedule: Q01DX009 (ip), vehicle: Klucel (hydroxypropylcellulose) (HPC)
[3] = endpoint: mean survival time, dose: 25.0 mg/kg/injection, schedule: Q04DX002 (ip), vehicle: saline with Tween-80
[4] = endpoint: mean survival time, dose: 50.0 mg/kg/injection, schedule: Q04DX002 (ip), vehicle: saline with Tween-80
[5] = endpoint: mean survival time, dose: 100.0 mg/kg/injection, schedule: Q04DX002 (ip), vehicle: saline with Tween-80
[6] = endpoint: mean survival time, dose: 75.0 mg/kg/injection, schedule: Q01DX001 (ip), vehicle: saline
[7] = endpoint: mean survival time, dose: 150.0 mg/kg/injection, schedule: Q01DX001 (ip), vehicle: saline
[8] = endpoint: mean survival time, dose: 100.0 mg/kg/injection, schedule: Q04DX003 (ip), vehicle: saline
[9] = endpoint: mean survival time, dose: 200.0 mg/kg/injection, schedule: Q04DX003 (ip), vehicle: saline
[10] = endpoint: mean survival time, dose: 400.0 mg/kg/injection, schedule: Q04DX003 (ip), vehicle: saline
[11] = endpoint: mean survival time, dose: 100.0 mg/kg/injection, schedule: Q04DX003 (ip), vehicle: saline with Tween-80
[12] = endpoint: mean survival time, dose: 200.0 mg/kg/injection, schedule: Q04DX003 (ip), vehicle: saline with Tween-80
[13] = endpoint: mean survival time, dose: 400.0 mg/kg/injection, schedule: Q04DX003 (ip), vehicle: saline with Tween-80
[14] = endpoint: mean survival time, dose: 100.0 mg/kg/injection, schedule: Q01DX009 (ip), vehicle: saline with Tween-80
[15] = endpoint: mean survival time, dose: 200.0 mg/kg/injection, schedule: Q01DX009 (ip), vehicle: saline with Tween-80
[16] = endpoint: mean survival time, dose: 400.0 mg/kg/injection, schedule: Q01DX009 (ip), vehicle: saline with Tween-80
[17] = endpoint: mean survival time, dose: 100.0 mg/kg/injection, schedule: Q01DX009 (ip), vehicle: saline sonified
[18] = endpoint: mean survival time, dose: 200.0 mg/kg/injection, schedule: Q01DX009 (ip), vehicle: saline sonified
[19] = endpoint: mean survival time, dose: 400.0 mg/kg/injection, schedule: Q01DX009 (ip), vehicle: saline sonified
[20] = endpoint: mean survival time, dose: 100.0 mg/kg/injection, schedule: Q04DX003 (ip), vehicle: Klucel (hydroxypropylcellulose) (HPC)
[21] = endpoint: mean survival time, dose: 200.0 mg/kg/injection, schedule: Q04DX003 (ip), vehicle: Klucel (hydroxypropylcellulose) (HPC)
[22] = endpoint: mean survival time, dose: 400.0 mg/kg/injection, schedule: Q04DX003 (ip), vehicle: Klucel (hydroxypropylcellulose) (HPC)

Measured: T/C

O=C(CCCl)c1ccccc1
inactive: endpoint: mean survival time, dose: 25.0 mg/kg/injection, schedule: Q01DX009 (ip), vehicle: other 104 % of control | endpoint: mean survival time, dose: 50.0 mg/kg/injection, schedule: Q01DX009 (ip), vehicle: other 100 % of control | endpoint: mean survival time, dose: 100.0 mg/kg/injection, schedule: Q01DX009 (ip), vehicle: other 92 % of control and 96 % of control

CN(C)N=Nc1ccc(/C=C/C(=O)O)cc1
inactive: [1] 105 % of control | [2] 111 % of control
active: endpoint: mean survival time, dose: 100.0 mg/kg/injection, schedule: Q01DX009 (ip), vehicle: Klucel (hydroxypropylcellulose) (HPC) 150 % of control

CSc1ncnc2c1C[P+](Cc1ccccc1)(c1ccccc1)CC2 (centres undefined)
inactive: [3] 101 % of control | [4] 101 % of control | [5] 101 % of control

C/C(=N/NC(N)=S)c1ccc(NC(=O)C(Cl)Cl)cc1
inactive: [6] 100 % of control | [7] 96 % of control

O=C(OCCOCCOC(=O)N1CCOCC1)N1CCOCC1
inactive: [8] 100 % of control | [9] 102 % of control | [10] 96 % of control

Cc1ncc([N+](=O)[O-])cc1C(=O)O
inactive: [11] 94 % of control | [12] 96 % of control | [13] 93 % of control

Cc1ccc(S(=O)(=O)O/N=C2/CCSc3ccccc32)cc1
inactive: endpoint: mean survival time, dose: 100.0 mg/kg/injection, schedule: Q01DX001 (ip), vehicle: acetone 100 % of control | endpoint: mean survival time, dose: 200.0 mg/kg/injection, schedule: Q01DX001 (ip), vehicle: acetone 97 % of control | endpoint: mean survival time, dose: 400.0 mg/kg/injection, schedule: Q01DX001 (ip), vehicle: acetone 97 % of control

O=C1c2ccccc2C(c2ccc(Br)cc2)C1Br (centres undefined)
inactive: [11] 97 % of control | [12] 90 % of control | [13] 100 % of control

Cc1ccc(C(OS(=O)(=O)c2ccc(C)cc2)C(F)(F)F)cc1 (centres undefined)
inactive: endpoint: mean survival time, dose: 100.0 mg/kg/injection, schedule: Q01DX001 (ip), vehicle: saline with Tween-80 104 % of control | [11] 107 % of control | endpoint: mean survival time, dose: 200.0 mg/kg/injection, schedule: Q01DX001 (ip), vehicle: saline with Tween-80 108 % of control | [12] 101 % of control | endpoint: mean survival time, dose: 400.0 mg/kg/injection, schedule: Q01DX001 (ip), vehicle: saline with Tween-80 106 % of control | [13] 98 % of control

CC(=O)Nc1ccccc1Sc1ccncc1[N+](=O)[O-]
inactive: [14] 100 % of control | [11] 88 % of control | [15] 100 % of control | [12] 92 % of control | [16] 90 % of control | [13] 95 % of control

O=S(=O)(O)CN(CCN(CS(=O)(=O)O)CS(=O)(=O)O)CS(=O)(=O)O
inactive: [17] 96 % of control | [8] 109 % of control | [18] 92 % of control | [9] 97 % of control | [19] 91 % of control | [10] 97 % of control

Cc1ccc2c(c1)CN(C13CC4CC(CC(C4)C1)C3)CO2
inactive: [14] 96 % of control | [15] 96 % of control | [16] 97 % of control

CC(=O)c1ccc(-c2ccccc2)cc1
inactive: [20] 102 % of control | [21] 103 % of control | [22] 102 % of control

O=C(c1cccnc1)C1Cc2ccccc2C1=O (centres undefined)
inactive: [17] 102 % of control | [18] 96 % of control | [19] 94 % of control

CCNc1nnc(N=Nc2ccccc2)s1
inactive: [3] 91 % of control | [4] 95 % of control | [5] 95 % of control | endpoint: mean survival time, dose: 200.0 mg/kg/injection, schedule: Q04DX002 (ip), vehicle: saline with Tween-80 88 % of control

CCNC1=C(C)C(=O)c2c(c(COC(N)=O)c3n2CC(NC(C)=O)C3O)C1=O (centres undefined)
inactive: endpoint: mean survival time, dose: 33.0 mg/kg/injection, schedule: Q01DX001 (ip), vehicle: carboxymethylcellulose (CMC) 98 % of control | endpoint: mean survival time, dose: 50.0 mg/kg/injection, schedule: Q01DX001 (ip), vehicle: carboxymethylcellulose (CMC) 98 % of control | endpoint: mean survival time, dose: 75.0 mg/kg/injection, schedule: Q01DX001 (ip), vehicle: carboxymethylcellulose (CMC) 102 % of control

CCOC(=O)c1ccc(NN=NCCF)cc1
inactive: endpoint: median survival time, dose: 3.12 mg/kg/injection, schedule: Q01DX009 (ip), vehicle: distilled water + Tween-80 114 % of control and 96 % of control | endpoint: median survival time, dose: 3.13 mg/kg/injection, schedule: Q01DX009 (ip), vehicle: distilled water + Tween-80 104 % of control | endpoint: median survival time, dose: 6.25 mg/kg/injection, schedule: Q01DX009 (ip), vehicle: distilled water + Tween-80 122 % of control and 98 % of control (2×) | endpoint: median survival time, dose: 12.5 mg/kg/injection, schedule: Q01DX009 (ip), vehicle: distilled water + Tween-80 92 % of control and 96 % of control | endpoint: median survival time, dose: 50.0 mg/kg/injection, schedule: Q01DX009 (ip), vehicle: distilled water + Tween-80 94 % of control

CC(=O)OC1COC(n2c(=S)n(-c3ccccc3)c(=N)c3ccccc32)C(OC(C)=O)C1OC(C)=O (centres undefined)
inactive: endpoint: mean survival time, dose: 12.5 mg/kg/injection, schedule: Q01DX005 (ip), vehicle: distilled water + Tween-80 90 % of control | endpoint: mean survival time, dose: 25.0 mg/kg/injection, schedule: Q01DX005 (ip), vehicle: distilled water + Tween-80 87 % of control | endpoint: mean survival time, dose: 50.0 mg/kg/injection, schedule: Q01DX005 (ip), vehicle: distilled water + Tween-80 93 % of control | endpoint: mean survival time, dose: 200.0 mg/kg/injection, schedule: Q01DX005 (ip), vehicle: distilled water + Tween-80 92 % of control

CN/N=C1\CCC2(C)C(CCC3C4CCC(O)C4(C)CCC32)C1 (centres undefined)
inactive: [1] 88 % of control | [2] 89 % of control | endpoint: mean survival time, dose: 50.0 mg/kg/injection, schedule: Q01DX009 (ip), vehicle: Klucel (hydroxypropylcellulose) (HPC) 91 % of control and 105 % of control

Cn1c(=O)c(CC(O)C(Cl)(Cl)Cl)nc2ccccc21 (centres undefined)
inactive: [20] 95 % of control | [21] 95 % of control | [22] 98 % of control

COc1ccc2nc3cc(Cl)ccc3c(Nc3ccc(C(O)CCN(C)C)cc3)c2c1 (centres undefined)
inactive: [6] 92 % of control | [7] 92 % of control | endpoint: mean survival time, dose: 300.0 mg/kg/injection, schedule: Q01DX001 (ip), vehicle: saline 90 % of control

NC(=O)c1cn(C2CC(O)C(CO)O2)c2ncnc(N)c12 (centres undefined)
inactive: endpoint: mean survival time, dose: 0.03 mg/kg/injection, schedule: Q01DX009 (ip), vehicle: water 93 % of control | endpoint: mean survival time, dose: 0.06 mg/kg/injection, schedule: Q01DX009 (ip), vehicle: water 93 % of control | endpoint: mean survival time, dose: 0.13 mg/kg/injection, schedule: Q01DX009 (ip), vehicle: water 94 % of control | endpoint: mean survival time, dose: 0.25 mg/kg/injection, schedule: Q01DX009 (ip), vehicle: water 98 % of control | endpoint: mean survival time, dose: 0.5 mg/kg/injection, schedule: Q01DX009 (ip), vehicle: water 102 % of control | endpoint: mean survival time, dose: 1.0 mg/kg/injection, schedule: Q01DX009 (ip), vehicle: water 98 % of control | endpoint: mean survival time, dose: 2.0 mg/kg/injection, schedule: Q01DX009 (ip), vehicle: water 100 % of control | endpoint: mean survival time, dose: 4.0 mg/kg/injection, schedule: Q01DX009 (ip), vehicle: water 104 % of control | endpoint: mean survival time, dose: 5.0 mg/kg/injection, schedule: Q01DX009 (ip), vehicle: water 108 % of control | endpoint: mean survival time, dose: 8.0 mg/kg/injection, schedule: Q01DX009 (ip), vehicle: water 100 % of control | endpoint: mean survival time, dose: 10.0 mg/kg/injection, schedule: Q01DX009 (ip), vehicle: water 99 % of control | endpoint: mean survival time, dose: 16.0 mg/kg/injection, schedule: Q01DX009 (ip), vehicle: water 98 % of control | endpoint: mean survival time, dose: 20.0 mg/kg/injection, schedule: Q01DX009 (ip), vehicle: water 104 % of control | endpoint: mean survival time, dose: 40.0 mg/kg/injection, schedule: Q01DX009 (ip), vehicle: water 101 % of control | endpoint: mean survival time, dose: 80.0 mg/kg/injection, schedule: Q01DX009 (ip), vehicle: water 103 % of control | endpoint: mean survival time, dose: 160.0 mg/kg/injection, schedule: Q01DX009 (ip), vehicle: water 104 % of control

N#C/C(=C1C=C/C(=N/O)C(Br)=C/1)c1ccccc1
inactive: [14] 108 % of control | [15] 96 % of control | [16] 95 % of control
